Measured values from patent US6440986B2, “HIV Inhibiting pyrimidine derivatives” (Janssen Pharmaceutica, N.V., priority 1998, dated 2002).

Key:
HIV-1 = assay: in vitro anti-HIV assay: inhibition of the HIV-induced cytopathic effect in MT-4 cells (MTT); format: cell-based; conditions: Human immunodeficiency virus 1, MT4, dose achieving 50% protection of HIV-infected MT-4 cells against cytopathic effect, OD 540 nm
Protocol: (§1) A rapid, sensitive and automated assay procedure was used for the in vitro evaluation of anti-HIV agents. An HIV-1 transformed T4-cell line, MT-4, which was previously shown (Koyanagi et al., Int. J. Cancer, 36, 445-451, 1985) to be highly susceptible to and permissive for HIV infection, served as the target cell line. Inhibition of the HIV-induced cytopathic effect was used as the end point. The viability of both HIV- and mock-infected cells was assessed spectrophotometrically via the in situ reduction of 3-(4,5-dimethylthiazol-2-yl)-2,5-diphenyltetrazolium bromide (MTT). […] The percent protection achieved by the compound in HIV-infected cells was calculated by the following formula: [formula]
(§2) whereby (ODT)HIV is the optical density measured with a given concentration of the test compound in HIV-infected cells; (ODC)HIV is the optical density measured for the control untreated HIV-infected cells: (ODC)MOCK is the optical density measured for the control untreated mock-infected cells; all optical density values were determined at 540 nm. […] The ratio of CC50 to IC50 was defined as the selectivity index (SI).

[1] = cytotoxicity in mock-infected MT-4 cells (MTT); format: cell-based; conditions: human, mock-infected MT-4 cells, 50% cytotoxic concentration; reduces absorbance of mock-infected MT-4 control by 50%; MTT
Protocol: as §1, with “An HIV-1 transformed T4-cell line, MT-4, which was previously shown (Koyanagi et al., Int. J. Cancer, 36, 445-451, 1985) to be highly susceptible to and permissive for HIV infection, served as the target cell line.” left out
as §2

| Structure (SMILES) | IC50 (HIV-1) | CC50 [1] | melting point |
| --- | --- | --- | --- |
| N#Cc1ccc(Nc2nc(Cc3c(Cl)cccc3Cl)cc(NCCN3CCCC3)n2)cc1 [Compound 13, 4-[[4-[(2,6-dichloro-phenyl)methyl]-6-[[2-(1-pyrrolidinyl)ethyl]amino]-2-pyrimidinyl]amino]benzonitrile] | 5 nM | 7800 nM | 80 to 85 °C |
| CCCCCCCC(=O)Nc1cc(Cc2c(Cl)cccc2Cl)nc(Nc2ccc(C#N)cc2)n1 [Compound 17, N-[6-[(2,6-dichloro-phenyl)methyl]-2-[(4-cyano-phenyl)amino]-4-pyrimidinyl]octanamide] | 167 nM | 9100 nM | 135 to 137 °C |
| N#Cc1ccc(Nc2nc(Cc3c(Cl)cccc3Cl)cc(NC(=O)CN3CCCCC3)n2)cc1 [Compound 25, N-[6-[(2,6-dichloro-phenyl)methyl]-2-[(4-cyano-phenyl)amino]-4-pyrimidinyl]-1-piperidine-acetamide] | 79 nM | > 100000 nM | 175 to 180 °C |
| CN(C)C=Nc1cc(Cc2c(Cl)cccc2Cl)nc(Nc2ccc(C#N)cc2)n1 [Compound 26, N′-[2-[(4-cyanophenyl)amino]-6-[(2,6-dichlorophenyl)methyl]-4-pyrimidinyl]-N,N-dimethylmethanimidamide] | 11 nM | 33500 nM | 175 to 180 °C |
| Cc1cc(C)c(Oc2ccnc(Nc3ccc(C#N)cc3)n2)c(C)c1 [Compound 58, 4-[[4-(2,4,6-trimethylphenoxy)-2-pyrimidinyl]amino]benzonitrile] | 2.9 nM | > 100000 nM | – |
| Cc1cc(Br)c(Nc2ccnc(Nc3ccc(C#N)cc3)n2)c(Br)c1 [Compound 61, 4-[[4-[(2,6-dibromo-4-methylphenyl)amino]-2-pyrimidinyl]amino]benzonitrile] | 0.7 nM | 100 nM | – |
| N#Cc1ccc(Nc2nccc(Nc3c(Cl)cc(C(F)(F)F)cc3Cl)n2)cc1 [Compound 66, 4-[[4-[[2,6-dichloro-4-(trifluoromethyl)-phenyl]amino]-2-pyrimidinyl]amino]benzonitrile] | 8.5 nM | 19900 nM | – |
| Cc1cnc(Nc2ccc(C#N)cc2)nc1Nc1c(C)cc(C#N)cc1C [Compound 89, 4-[[2-[(4-cyanophenyl)amino]-5-methyl-4-pyrimidinyl]amino]-3,5-dimethylbenzonitrile] | 0.7 nM | 400 nM | – |
| Cc1cc(C)c(Nc2ccnc(Nc3ccc(C(N)=O)cc3)n2)c(C)c1 [Compound 100, 4-[[4-[(2,4,6-trimethylphenyl)amino]-2-pyrimidinyl]amino]benzamide] | 75 nM | 800 nM | – |
